# Data reported in article PMC11431997, “Baicalin Inhibits FIPV Infection In Vitro by Modulating the PI3K-AKT Pathway and Apoptosis Pathway” (International Journal of Molecular Sciences, 2024).
# Like-named read-outs stand apart in the source and are kept apart here.
# What was measured:
# CRFK cells = assay: Cytotoxicity assay of the compounds (CCK-8); type: cell-based, feline
# Method: (§1) CRFK cells were seeded in 96-well cell culture plates at a density of 1 × 10^4 cells/well and incubated at 37 °C with 5% CO2 until the cell density reached more than 90%. Then, the medium was discarded, and the cells were washed twice with PBS. The compound to be tested was diluted in 10 successive gradients with MM at a 2-fold multiplicity (at the same time, there was a cell control group of 100 μL of MM, and 3 replicate wells were set for each concentration and group) and incubated at 37 °C with 5% CO2 for 72 h; then, the liquid in the plate was discarded and washed twice with PBS. Afterwards, the cytopathic ratios (CRs) of the compounds to cells were calculated according to the instructions of the Cell Counting Kit-8 (MCE, NJ, USA), and the CC50s of the compounds and the MNTCs at which the compounds could survive more than 90% of the cells were calculated using GraphPad Prism 10. In subsequent experiments, the final concentrations of the compounds after addition were the MNTCs of the compounds unless otherwise specified.
# [1] = Cytotoxicity assay of the compounds (CCK-8); type: cell-based, feline; conditions: cat
# Method: as §1
# FIPV (BJ-01) = assay: Inhibitory effects of compounds on FIPV-infected cells (compound and FIPV added simultaneously, CCK-8); type: cell-based, feline infectious peritonitis virus; conditions: 72 h; for inhibition of FIPV infection (MIR): compound at MNTC added with 100 TCID50 FIPV to CRFK cells
# Method: According to previous methods, CRFK cells were seeded in 96-well cell culture plates at a density of 1 × 10^4 cells/well and cultured at 37 °C in 5% CO2 until the cell density was greater than 90%. After the cells were washed twice with PBS, 50 μL of test compound and 50 μL of FIPV were added to each well simultaneously (at the same time, a cell control group with only 100 μL of MM and a viral control group with only 100 μL of FIPV were added). There were 3 replicate wells for each compound and group. After 72 h of incubation at 37 °C and 5% CO2, the liquid in the plate was discarded, and the cells were washed twice with PBS. The MIR of the compounds to the virus was calculated according to the instructions of the Cell Counting Kit-8. Afterwards, the compounds with MIR > 50% were diluted to 8 concentrations with MM, and the above process was repeated. Then, the EC50 values of the compounds were calculated with GraphPad Prism 10.
# [2] = CRFK cells, 72 h, CCK-8, concentration at which more than 90% of the cells survive
# [3] = CRFK cells, 72 h, CCK-8, read-out: CC50
SMILES,"MNTC (maximum noncytotoxic concentration) (CRFK cells; cat, 72 h) [µg/mL]",CC50 at 72 h [1] [µg/mL],inhibition of FIPV infection (MIR) (FIPV (BJ-01)),MNTC (maximum noncytotoxic concentration) (CRFK cells; [2]) [µg/mL],"CC50 at 72 h [1, 3] [µg/mL]",further results
O=C(O)/C=C/c1ccc(O)c(O)c1 [Caffeic acid],53.43,58.8,,,,
C[S+](C)[O-] [DMSO],,,,,,MNTC (CRFK cells): 0.83%
O=C(/C=C/c1ccc(O)c(O)c1)O[C@@H]1C[C@](O)(C(=O)O)C[C@@H](O)[C@H]1O [Chlorogenic acid],1605,2170,,,,
Cc1cccc2c3c(ccc12)C1=C(C(=O)C3=O)[C@@H](C)CO1 [Dihydrotanshinone I],246.4,426,less than 20%,,,
CC1(C)[C@@H](O[C@H]2O[C@H](C(=O)O)[C@@H](O)[C@H](O)[C@H]2O[C@@H]2O[C@H](C(=O)O)[C@@H](O)[C@H](O)[C@H]2O)CC[C@]2(C)[C@H]3C(=O)C=C4[C@@H]5C[C@@](C)(C(=O)O)CC[C@]5(C)CC[C@@]4(C)[C@]3(C)CC[C@@H]12 [Glycyrrhizic acid],,,,1412,3320,
"N#C[C@@]1(c2ccc3c(N)ncnn23)O[C@H](CO)[C@@H](O)[C@H]1O [GS-441524, reference compound]",,,significantly more than the other compounds tested,36.20,70.3,"EC50 (FIPV (BJ-01); Alphacoronavirus 1, FIPV in CRFK cells, gradient dilution, CCK-8): 0.205 µg/mL"
Cc1coc2c1C(=O)C(=O)c1c-2ccc2c1CCCC2(C)C [Tanshinone IIA],,,less than 20%,290.9,807,
O=C1CCC[C@@H]2[C@H]3CCCN4CCC[C@@H](CN12)[C@@H]34 [Matrine],,,less than 20%,699.8,1110,
Cc1nc(C)c(C)nc1C.Cl [Ligustrazine hydrochloride],,,less than 20%,969.6,,"CC50 (CRFK cells; CRFK cells, 72 h, CCK-8): 2709 µg/mL"
O=c1c(-c2ccc(O)cc2)coc2c([C@@H]3O[C@H](CO)[C@@H](O)[C@H](O)[C@H]3O)c(O)ccc12 [Puerarin],83.77,209,less than 20%,,,
